Laboratory results taken from BigSolDB 2.1.

Conditions: in water

O=C([O-])c1cccc(S(=O)(=O)O)c1.[Na+]
Conditions | solubility (mole fraction)
278.15 K | 0.0276
283.15 K | 0.0296
288.15 K | 0.032
293.15 K | 0.0346
298.15 K | 0.0372
303.15 K | 0.0417
308.15 K | 0.0459
313.15 K | 0.0519
318.15 K | 0.0584
323.15 K | 0.0687
